This passage reports IC50 and inhibition results from patent US20180064665A1 (UNIVERSITY-INDUSTRY COOPERATION GROUP OF KYUNG HEE …, priority 2015, published 2018).

Series [1] in a line: Measurement of cell viability (MTT). It counts as cell-based, mouse. As to conditions: mouse, Raw264.7 macrophage cells, Raw264.7 cells, with LPS 1 μg/mL, mean of three measurements, read-out: Cell viability (IC50 for cell toxicity). As for the experimental part:
Raw264.7 cells (macrophage cell line from mouse) were obtained from Korean Cell Line Bank (KCLB) and cultured in Dulbecco's modified Eagle's medium containing 10% FBS, penicillin (100 units/ml), streptomycin sulfate (100 μg/ml) at 37° C. and 5% CO2 in humidified environment.
Cells were collected by centrifugation and scraping, and seeded at 1×10^5 cells/well in a 96 well plate containing 100 μl of RPMI 1640 medium with 10% FBS. 3β, 4β-epoxy-8α-isobutyryloxyguaia-1(10), 11, (13)-diene-12.6α-olide was dissolved in dimethylsulfoxide (DMSO) solvent and the concentration of DMSO was not more than 0.1% in all experiments. Next day, test compounds and LPS (1 μg/mL) were added and the plate were cultured for 24 hrs. After washing cells once, 50 μl of the medium containing 5 mg/ml MTT but without FBS was added and cells were cultured at 37° C. for 4 hrs. And then, the medium was removed, formazan blue formed in the cells was dissolved in 100 μl of DMSO, and an absorbance was measured at 540 nm to obtain IC50 values for cell toxicity. […] The results are shown in the above Table 1 and the values are means of three measurements.

Another series deals with PGE2 production. In words: Inhibitory activity on PGE2 production in LPS-treated Raw264.7 cells (PGE2 immunoassay). As to conditions: Mus musculus, LPS 1 μg/mL; for IC50: mean of three measurements, read-out: Inhibition of PGE2 production IC50. The series is classed as cell-based, mouse. As for the experimental part: Raw264.7 cells (macrophage cell line from mouse) were obtained from Korean Cell Line Bank (KCLB) and cultured in Dulbecco's modified Eagle's medium (DMEM) containing 10% Fetal Bovine Serum (FBS), penicillin (100 units/mL), streptomycin sulfate (100 μg/mL) at 37° C. and 5% CO2 in humidified environment. RAW264.7 cells at 5×10^5 cells/mL were seeded at 1 mL/well in 24 wells using DMEM, left overnight, replaced with a fresh medium and then treated with a test compound of an appropriate concentration. The cells were incubated for 1 hr and then treated with LPS at 1 μg/mL and incubated for 24 hrs (or proper period). A supernatant was taken and diluted five times. 150 μL of an analysis buffer was added to Non Specific Binding (NSB) well, and 100 μL of an analysis buffer was added to zero point standard (B0) well. 100 μL of a standard sample was added to the other wells and 50 μL of PGE2 conjugate was added (excluding NSB). 50 μL of PGE2 antibody solution was added and wells were shaken for 2 hrs. Each well was suctioned and washed with a wash buffer five times. Each 200 μL of para-Nitrophenyl phosphate (pNPP) substrate was added to the all wells and the wells were stored in a bench at room temperature for 1 hr. 50 μL of stop solution was added and an absorbance was measured at 405 nm. The amount of PGE2 was quantified using the measured absorbance and a standard curve and compared to a group treated with LPS only to obtain a concentration inhibiting 50% (IC50). The results are shown in the following Table 1 and the presented values are means of three measurements.

By IC50 is commonly meant the concentration needed to halve the response being measured. The term inhibition denotes how much of the control response was suppressed. For the compound `O=C(Oc1ccccc1)N(NS(=O)(=O)c1ccccc1)c1ccccc1` [Comparative Example 1, N-phenyl-N′-(phenoxycarbonyl)-phenylsulfonhydrazide, reference compound], in series [1], the IC50 at 24 h was more than 10 µM. The 50% inhibitory concentration (IC50) in the series on PGE2 production amounted to 5.7 µM. In the series with PGE2 production (compound at 10 μM), testing at 10 µM gave an inhibition of 84.4%.

Consider `Cc1cc(C)c(S(=O)(=O)N(Nc2ccccc2)C(=O)Oc2ccc3c(c2)CCC3)c(C)c1` [Example 28], for which, in series [1], the IC50 at 24 h was more than 1 µM. Moreover, in the series on PGE2 production, the IC50 came to 0.0586 µM. This compound also displayed an inhibition at 0.1 µM with PGE2 production (compound at 0.1 μM) of 57.2%.
